system: U937 cells; assay: necroptosis assay in human monocytic leukemia U937 cells (Cell Titer-Glo ATP viability readout); format: cell-based; conditions: U-937, viability by cellular ATP (Cell Titer-Glo), values approximate, read-out: pIC50, inhibition of necrosis in U937 cells (converted)
Experimental: The efficacy of RIP1 inhibitors can be tested in […] in vitro using a human monocytic leukemia U937 in a necroptosis assay. As determined using the method described in S. He et al., Cell, 137(6):1100-1111 (2009) and International Patent Appln. No. PCT/IB2014/059004, now, International Patent Appln. Pub.
Viability was measured by quantitating cellular levels of ATP using the Cell Titer-Glo kit. All data are means±standard deviation of the mean.

Structure (SMILES)	IC50
CC(=O)N1CCC(C(=O)N2OCC[C@H]2c2cc(F)cc(F)c2)CC1 [Example 2, (S)-1-(4-(3-(3,5-difluorophenyl)isoxazolidine-2-carbonyl)piperidin-1-yl)ethan-1-one]	1 to 100 nM
C[S@+]([O-])c1cc(N2CC[C@@H](C(=O)N3OCC[C@@H]3c3cc(F)cc(F)c3)[C@@H](F)C2)ncn1 [Example 46, ((R)-3-(3,5-difluorophenyl)isoxazolidin-2-yl)((3R,4S)-3-fluoro-1-(6-((S)-methylsulfinyl)pyrimidin-4-yl)piperidin-4-yl)methanone]	1 to 100 nM
CN(C)C(=O)c1cc(N2CCC(C(=O)N3OCC[C@H]3c3cc(F)cc(F)c3)CC2)ncn1 [Example 10, (S)-6-(4-(3-(3,5-difluorophenyl)isoxazolidine-2-carbonyl)piperidin-1-yl)-N,N-dimethylpyrimidine-4-carboxamide]	1 to 100 nM
NC(=O)c1cc(N2CC[C@H](C(=O)N3OCC[C@@H]3c3cc(F)cc(F)c3)[C@H](F)C2)ncn1 [Example 26, 6-((3S,4R)-4-((R)-3-(3,5-difluorophenyl)isoxazolidine-2-carbonyl)-3-fluoropiperidin-1-yl)pyrimidine-4-carboxamide]	1 to 100 nM
CNC(=O)c1cc(N2CC[C@@H](C(=O)N3OCC[C@@H]3c3cc(F)cc(F)c3)[C@@H](F)C2)ncn1 [Example 32, 6-((3R,4S)-4-((R)-3-(3,5-difluorophenyl)isoxazolidine-2-carbonyl)-3-fluoropiperidin-1-yl)-N-methylpyrimidine-4-carboxamide]	1 to 100 nM
CN(C)C(=O)c1cc(N2CC[C@H](C(=O)N3OCC[C@H]3c3cc(F)cc(F)c3)[C@H](F)C2)ncn1 [Example 35, 6-((3S,4R)-4-((S)-3-(3,5-difluorophenyl)isoxazolidine-2-carbonyl)-3-fluoropiperidin-1-yl)-N,N-dimethylpyrimidine-4-carboxamide]	1 to 100 nM
CNC(=O)c1cc(N2CC[C@H](C(=O)N3OCC[C@@H]3c3cc(F)cc(F)c3)[C@H](F)C2)ncn1 [Example 30, 6-((3S,4R)-4-((R)-3-(3,5-difluorophenyl)isoxazolidine-2-carbonyl)-3-fluoropiperidin-1-yl)-N-methylpyrimidine-4-carboxamide]	1 to 100 nM
CNC(=O)c1cc(N2CCC(C(=O)N3OCC[C@H]3c3cc(F)cc(F)c3)CC2)ncn1 [Example 9, (S)-6-(4-(3-(3,5-difluorophenyl)isoxazolidine-2-carbonyl)piperidin-1-yl)-N-methylpyrimidine-4-carboxamide]	1 to 100 nM
C[S@@+]([O-])c1cc(N2CC[C@H](C(=O)N3OCC[C@@H]3c3cc(F)cc(F)c3)[C@H](F)C2)ncn1 [Example 44, ((R)-3-(3,5-difluorophenyl)isoxazolidin-2-yl)((3S,4R)-3-fluoro-1-(6-((R)-methylsulfinyl)pyrimidin-4-yl)piperidin-4-yl)methanone]	1 to 100 nM
Cc1nnc(N2CC[C@H](C(=O)N3OCC[C@@H]3c3cc(F)cc(F)c3)[C@H](F)C2)o1 [Example 16, ((R)-3-(3,5-difluorophenyl)isoxazolidin-2-yl)((3S,4R)-3-fluoro-1-(5-methyl-1,3,4-oxadiazol-2-yl)piperidin-4-yl)methanone]	1 to 100 nM
Cc1nnc(N2CCC(C(=O)N3OCC[C@H]3c3cc(F)cc(F)c3)CC2)o1 [Example 5, (S)-(3-(3,5-difluorophenyl)isoxazolidin-2-yl)(1-(5-methyl-1,3,4-oxadiazol-2-yl)piperidin-4-yl)methanone]	1 to 100 nM
NC(=O)c1cc(N2CCC(C(=O)N3OCC[C@H]3c3cc(F)cc(F)c3)CC2)ncn1 [Example 4, (S)-6-(4-(3-(3,5-difluorophenyl)isoxazolidine-2-carbonyl)piperidin-1-yl)pyrimidine-4-carboxamide]	1 to 100 nM
N#Cc1cc(N2CCC(C(=O)N3OCC[C@H]3c3cc(F)cc(F)c3)CC2)ncn1 [Example 8, (S)-6-(4-(3-(3,5-difluorophenyl)isoxazolidine-2-carbonyl)piperidin-1-yl)pyrimidine-4-carbonitrile]	1 to 100 nM
O=C([C@H]1CCN(c2nnco2)C[C@H]1F)N1OCC[C@@H]1c1cc(F)cc(F)c1 [Example 22, ((R)-3-(3,5-difluorophenyl)isoxazolidin-2-yl)((3S,4R)-3-fluoro-1-(1,3,4-oxadiazol-2-yl)piperidin-4-yl)methanone]	1 to 100 nM
CN(C)C(=O)c1cc(N2CC[C@H](C(=O)N3OCC[C@@H]3c3cc(F)cc(F)c3)[C@H](F)C2)ncn1 [Example 34, 6-((3S,4R)-4-((R)-3-(3,5-difluorophenyl)isoxazolidine-2-carbonyl)-3-fluoropiperidin-1-yl)-N,N-dimethylpyrimidine-4-carboxamide]	1 to 100 nM
Cc1nnc(N2CC[C@@H](C(=O)N3OCC[C@@H]3c3cc(F)cc(F)c3)[C@@H](F)C2)o1 [Example 18, ((R)-3-(3,5-difluorophenyl)isoxazolidin-2-yl)((3R,4S)-3-fluoro-1-(5-methyl-1,3,4-oxadiazol-2-yl)piperidin-4-yl)methanone]	1 to 100 nM
